Results taken from patent US11472752B2, “Method for making resistant to thiodicarb (carbamate) and bifenthrin (pyrethroid) a consortium of fungi that solubilise phosphorous and antagonise certain pathogens, for use in liquid biofertilisers for foliar and/or soil application” (priority 2018, dated 2022).

Tests used:
Assay in all cases: Stagewise adaptation on growth media poisoned with thiodicarb or bifenthrin; mortality rate
Type in all cases: cell-based
Metarhizium anisopliae = conditions: for Resistant to: FINAL: final development characteristics
Description: (§1) Strains of sulphur sulubilizer fungi, antagonist to some pathogens: • a) Paecilomyces sp. • b) Beauveria bassiana • c) Trichoderma harzianum • d) Metarhizium anisopliae Preparation for Stage Development 1. Glass material is sterilized in an autoclave. 2. The required amount of growth media is prepared with 3% rice broth (P/V), and 9% of a solution of molasses, sterilized at 121° C. for 15 minutes at a pressure of 15 lb. 3. Lethal dose (LD) applied to a hectare is established, for thiodicarb as well as bifenthrin. 10 Petri dishes are prepared with 0.1 LD of thiodicarb of bifenthrin. Dishes are incubated at 25° C. for 72 hours with cold light. 4. From the previous suspension with a known concentration, (107) the growth media is seeded with 1 ml, the pH adjustment is performed at 5.5 with a sterile 10 citric acid solution. 5. Stir at 110 rpm and 27 OC for 7 days. 6. The process is monitored controlling the variables, mainly the pH and biomass concentration, adjusting the pH to 5.5 during the entire process. 7. On the fourth day of the process, the foam formation is controlled with 1% soy oil and the stirring speed. Methodology a. Petri dishes are placed inside the laminar flow chamber along with the diluted samples, to seed microorganisms in the dishes, a one ml sample of the strain is taken with an automated pipette, 10^−1 and 10^−2 solutions are performed, and each solution is homogenized. b. Having the petri dishes with the sterile and cold growth media, it is homogenized with 6 right to left movements, 6 clockwise movements, 6 counterclockwise movements and 6 front to back movements over a flat horizontal surface until the inoculum is completely integrated into the media, stand until it solidifies and each dish is covered with parafilm to avoid contamination during incubation. c. Dishes with thiodicarb and Bifenthrin are placed inside the incubator at 25° C. for 72 hours with a cold light lamp. d. Inoculated dishes are incubated for 15 days, the product concentration impact is determined on mycelial growth, sporulation and germination (12 hours of incubation). e. The residual impact of the product is reviewed after 7 days in the malt agar, dextrose and PDA agar media, enriched with minerals. f. If there is no growth over 10%, the process is repeated until a mortality under 90% is obtained. g. […] After that, the suspension is stirred for 30 seconds in a Vortex tube mixer. The spore concentration is measured in a Newbawer Chamber and the results are reported in conidia per […]. i. From the 10 Petri dishes for each microorganism, the one with the lowest mortality rate is the one that will continue with the following study. j. The study is performed again using this percentage until coverage increases and so on, the addition of thiodicarb and bifenthrin is alternated with the LD in intervals of 0.1 LD; all these experiments have been designed with the experimental strains and a control. k. With the data obtained from the mycelial growth and sporulation, the percentage of inhibition of gradual growth is obtained, the data is transformed for its analysis with the expression 2 arc sin, and the sporulation through the equation Log 10(x+10). A two-way classification analysis of variance is applied and later the Turkey test is performed using a 5% probability.
(§2) For each species, stages analyzing times required to cover the entire field were performed. Once this time was determined, they were left to rest for 10 days to be later subject to the following protocol: […]

Beauveria bassiana = conditions: for Resistant to: FINAL: final characteristics after selective process
Description: as §1
(§3) For each species, stages analyzing times required to cover the entire field were performed. Once this time was determined, they were left to rest for 10 days to be later subject to the following protocol:
Stages begin with the conditions in its natural habitat: pH—7.0 a 7.5, Humidity: 30 to 40% and humidity is increased up to 70% and a Temperature from 28 to 30° C., maintained during all the research term. These conditions are the starting point to adapt the strain to thiodicarb (carbamate) and bifenthrin (pyrethroid). During all stages, we will be using a cold light lamp to adapt the microorganism to sunlight.

Paecilomyces sp. = tested on: Paecilomyces sp.
Description: Strains of sulphur sulubilizer fungi, antagonist to some pathogens: • a) Paecilomyces sp. • b) Beauveria bassiana • c) Trichoderma harzianum • d) Metarhizium anisopliae Preparation for Stage Development 1. Glass material is sterilized in an autoclave. 2. The required amount of growth media is prepared with 3% rice broth (P/V), and 9% of a solution of molasses, sterilized at 121° C. for 15 minutes at a pressure of 15 lb. 3. Lethal dose (LD) applied to a hectare is established, for thiodicarb as well as bifenthrin. 10 Petri dishes are prepared with 0.1 LD of thiodicarb of bifenthrin. Dishes are incubated at 25° C. for 72 hours with cold light. 4. […] The process is monitored controlling the variables, mainly the pH and biomass concentration, adjusting the pH to 5.5 during the entire process. […] Inoculated dishes are incubated for 15 days, the product concentration impact is determined on mycelial growth, sporulation and germination (12 hours of incubation). e. […] The spore concentration is measured in a Newbawer Chamber and the results are reported in conidia per square millimeter. i. […]
as §2

Trichoderma harzianum = tested on: Trichoderma harzianum
Description: as §1, §3
Procedures begin with the conditions in its natural habitat: Humidity: 30 to 40% and humidity is increased up to 70% and a Temperature from 28 to 30° C., maintained during all the research term. pH from 7.0 to 7.5. These conditions are the starting point to adapt the strain to thiodicarb and bifenthrin.

[1] = stages E-33 and E-34, 0.9 LD (0.00016 gr)
[2] = stages E-35 and E-36, 1 LD (0.00018 gr)
[3] = stages E-3 and E-4, 0.2 LD (0.000035 gr)
[4] = stages E-25 and E-26, 0.7 LD (0.00012 gr)
[5] = stages E-43 and E-44, 1.2 LD (0.00022 gr)
[6] = stages E-49 and E-50, 1.1 LD (0.00024 gr)
[7] = stages E-51 and E-52, 1.2 LD (0.00026 gr)

## Cc1c(COC(=O)[C@@H]2[C@H](/C=C(\Cl)C(F)(F)F)C2(C)C)cccc1-c1ccccc1 (racemic) [bifenthrin, 2-methyl biphenyl-3-ilmetil(2)-(1RS,3RS)-3-(2-chlorine 3,3,3-trifluoropropene)-2,2-dimethyl-cyclo-propane-carboxylate]
Metarhizium anisopliae
  Resistant to: FINAL: 1.3 LD of
Beauveria bassiana
  Resistant to: FINAL: 1 LD of thiodicarb

## CS/C(C)=N\OC(=O)N(C)SN(C)C(=O)O/N=C(\C)SC [thiodicarb]
Paecilomyces sp.; [1]
  mortality rate: 8%
Paecilomyces sp.; [2]
  mortality rate: 15%
Metarhizium anisopliae
  Resistant to: FINAL: 1.3 LD of
Metarhizium anisopliae; [3]
  mortality rate: 55%
Metarhizium anisopliae; [1]
  mortality rate: 15%
Metarhizium anisopliae; [2]
  mortality rate: 15%
Trichoderma harzianum; stage E-1, 0.1 LD (0.0000175 gr), until day 68 of incubation
  mortality rate: 82%
Trichoderma harzianum; stage E-2, 0.1 LD (0.0000175 gr)
  mortality rate: 85%
Trichoderma harzianum; stages E-11 and E-12, 0.4 LD (0.000070 gr)
  mortality rate: 75%
Trichoderma harzianum; stages E-19 and E-20, 0.6 LD (0.00011 gr)
  mortality rate: 66%
Trichoderma harzianum; [4]
  mortality rate: 60%
Trichoderma harzianum; [5]
  mortality rate: 18%
Trichoderma harzianum; [6]
  mortality rate: 10%
Trichoderma harzianum; [7]
  mortality rate: 8%
Beauveria bassiana
  Resistant to: FINAL: 1 LD of thiodicarb
Beauveria bassiana; stages E-1 and E-2, 0.1 LD (0.0000175 gr), 32% humidity
  mortality rate: 73%
Beauveria bassiana; [3]
  mortality rate: 73-79%
Beauveria bassiana; [4]
  mortality rate: 23%
Beauveria bassiana; [2]
  mortality rate: 26%
Beauveria bassiana; [5]
  mortality rate: 20%
Beauveria bassiana; [6]
  mortality rate: 14%
Beauveria bassiana; [7]
  mortality rate: 11%
